Like-named read-outs stand apart in the source and are kept apart here.
What was measured:
[1] = system: wild-type T. gondii; experiment: Fluorescent T. gondii growth assay, wild-type strain; format: cell-based, Toxoplasma gondii
Description: (§1) Wild-type T. gondii and T. gondii-ΔHXGPRT parasites were transfected with plasmid ptubYFPYFsagCAT [37] which drives constitutive cytoplasmic expression of two copies of the yellow fluorescent protein. Similarly, plasmid pCTR2T [38] was transfected into T. gondii-CpIMPDH resulting in constitutive cytoplasmic expression of a tandem of the tomato variant of the red fluorescent protein [39]. Fluorescent parasites were selected and cloned by cell sorting using a MoFlo Legacy instrument (Beckman Coulter, Inc). Growth of fluorescent clones was monitored in 96 well plates as previously described. Briefly, fluorescence was read daily with a SpectraMax M22/M2e (Molecular Devices) plate reader (Ex 485, Em 530) for 6–7 days. For each of the three fluorescent T. gondii clones percent growth inhibition was calculated on a day within the exponential phase of growth for the purpose of determining an IC50 for each compound.
(§2) Supplementary file pntd.0000794.s002.tif: Figure S2 Obtaining an EC50 value for T. gondii growth. Fluorescent T. gondii parasites are seeded into 96-well plates and spiked with test compound. Fluorescence is measured daily with a SpectraMax M22/M2e (Molecular Devices) plate reader for 6–7 days. The fluorescence readings on a day during the exponential phase of the growth curve, for example day 4 in A, are used to calculated percent growth inhibition. These values are fitted using the 4 parameter model y = D+(A–D)/(1+(x/C)^B) where D is the minimum value, A is the maximum value, C is the EC50 and B is the Hill coefficient, using the SoftMax Pro v5 software, as illustrated in B. The absolute EC50 is recorded at the x intercept where y = 50. (0.33 MB TIF) Click here for additional data file.

[2] = system: T. gondii-ΔHXGPRT; experiment: Fluorescent T. gondii growth assay, ΔHXGPRT strain; format: cell-based; details: Toxoplasma gondii, read-out: T. gondii model EC50 ΔHXGPRT, T. gondii-ΔHXGPRT
Description: as §1, §2

[3] = system: T. gondii-CpIMPDH; experiment: Fluorescent T. gondii growth assay, CpIMPDH reporter strain; format: cell-based, Toxoplasma gondii; details: for Selectivity = EC50(T. gondii-wild-type)/EC50(T. gondii-CpIMPDH): Figure 5 Sel; for EC50: Toxoplasma gondii, read-out: T. gondii model EC50 CpIMPDH, T. gondii-CpIMPDH, absence of xanthine
Description: as §1
To facilitate screening of antiparasitic activity, we constructed a T. gondii reporter parasite that mirrors the Cryptosporidium purine metabolism. Figure 1 summarizes the main differences between the two parasites in this pathway. We started with a T. gondii knockout mutant that, like C. parvum, lacks the ability to salvage xanthine and guanine via HXGPRT (T. gondii-ΔHXGPRT [41]) and introduced the CpIMPDH gene under the control of a T. gondii promoter. Next the native T. gondii IMPDH gene was disrupted by replacing the entire coding sequence with a chloramphenicol acetyl transferase cassette using a new cosmid-based gene targeting approach. […] This manipulation created strain T. gondii-CpIMPDH-ΔHXGPRT-ΔTgIMPDH. Lastly, we introduced a fluorescent protein cassette and isolated stable transgenic parasites by cell sorting. The resulting strain is referred to as T. gondii-CpIMPDH. […] We similarly engineered fluorescent versions of wild-type T. gondii and T. gondii-ΔHXGPRT to serve as controls.
as §2

[4] = system: HCT-8 cells; experiment: Fluorescent HCT-8 host cell growth assay; format: cell-based, human; details: for activity at 25 µM: Homo sapiens, HCT-8, compound at 25 μM, relative to DMSO alone; for effect on host cell (HCT-8) growth: in words
Experimental: HCT-8 cells were transfected with plasmid pmaxGFP (Amaxa) using Lipofectamine (Invitrogen). Fluorescent lines were then selected and cloned using cell sorting. Confluent monolayers of pmaxGFP expressing cells were harvested from T75 flasks and passed through a 40 µm cell strainer. Cells were seeded at 4000 cells per well into black, optical quality, thin bottom, 96-well plates. All test compounds were diluted in DMSO as described. The fluorescence was read daily with a SpectraMax M22/M2e (Molecular Devices) plate reader (Ex 485, Em 530) for 6–7 days. Percent inhibition was calculated on a day within the exponential phase of growth.

[5] = system: C. parvum; experiment: High-content imaging C. parvum growth assay (FITC-VVL); format: cell-based, Cryptosporidium parvum; details: for EC50: Cryptosporidium parvum, HCT-8, 48 h, growth in HCT-8 cells, 48 hours; for potency relative to paromomycin: anticryptosporidial activity
Experimental: The human ileocecal adenocarcinoma epithelial cell line, HCT-8, was used to support C. parvum infection in vitro. HCT-8 cells were maintained in RPMI-1640 (Hyclone) supplemented with 10% FBS, 1 mM sodium pyruvate, 50 U/m penicillin, 50 µg/ml streptomycin, and amphotericin B. Cryptosporidium parvum oocysts were a kind gift from either Dr. Mead (Emory University) or Dr. Kissinger (University of Georgia). HCT-8 cells (2×10^5) were seeded into black, optical quality, thin bottom, 96-well plates (DB Falcon) to achieve a 70% confluent monolayer on the day of infection. To facilitate oocyst excystation, a procedure described by Gut et al., was followed. Briefly, oocysts were washed twice with 1 ml of PBS (pH 7.2), incubated for 10 minutes at 37°C in 1 ml 10 mM of HCl and then incubated for a further 10 minutes in 0.2 ml of 200 µM sodium taurocholate at 15°C [40]. This oocyst suspension was diluted directly with DMEM (Hyclone) supplemented with 2% FBS, 50 U/ml penicillin, 50 µg/ml streptomycin, amphotericin B and 0.2 mM L-glutamine (infection medium) to inoculate host cell monolayers at 5×10^5 oocysts per well. Host cell monolayers were incubated for 3 hours at 37°C prior to removal of unexcysted oocysts by aspiration and PBS wash. Infection medium was then added to the monolayers and infection was allowed to progress for 48 hours.
The VVL IFA was performed in a 96-well format. Following 48 hours of culture C. parvum infected HCT-8 cells were washed with PBS and fixed with 0.2 ml/well of 3% paraformaldehyde/PBS, permeabilized with 0.25% Triton-X-100/PBS and blocked with 4% BSA/PBS. 0.1 ml of fluorescein (FITC)-conjugated VVL (Vector Labs 0.5 µg/ml) in 1% BSA/PBS was applied to wells and incubated for 45 minutes. The plates were washed twice with 200 µl/well of PBS. In the first wash DAPI was included at 0.1 µg/ml. Finally 200 µl/well of PBS was added to the plates prior to storage at 4°C protected from light.
Confocal images were acquired using a BD Biosciences Bioimager P435. The instrument was programmed to automatically change position and focus, capture montage images of 9–16, 40× fields per well, and then compress and save the image files. Object finding algorithms were developed for the recognition of FITC-VVL labelled C. parvum parasites and DAPI labelled host cell nuclei using Attovision Software (BD Biosciences). Briefly, to identify FITC-VVL labelled parasites, the object finding algorithm included, a flat field correction, a polygon shape setting, a 3×3 rolling ball filter, manual pixel intensity thresholding (100 min – 4095 max), and minimum and maximum object size cut-offs of 5 pixels and 350 pixels respectively. The algorithm optimised for finding DAPI labelled host cell nuclei also included flat field correction and polygon shape setting, but applied a 25×25 rolling ball filter which is more suitable for larger objects, an automated pixel intensity threshold, minimum and maximum object size cut-offs of 200 pixels and 4000 pixels respectively, and a watershed step with an erosion factor of 8 to aid in the separation of adjacent densely packed nuclei. Note that the intensity and area size cut off exclude detection of the much smaller parasite nuclei (the human genome is three hundred times larger than the C. parvum genome).
The object finding analysis steps described above recorded the number and area of objects per montage image. The output files along with a plate map file were then passed to an automated analysis pipeline (Pipeline Pilot Software, Accelrys) to calculate the mean number of parasites, the ratio of parasite number to host cell nuclei number, the mean area of parasites and host cell nuclei by well, and the percentage growth by treatment as compared to the no drug control. These analyses were exported in graphical format for each plate and the numerical values tabulated in html format. […]

[6] = molecular target: CpIMPDH (Cryptosporidium parvum, UniProt Q8T6T2); details: at concentrations active against TgIMPDH; cited from earlier work
[7] = Toxoplasma gondii, wild-type T. gondii, no added xanthine, read-out: T. gondii model EC50 WT

Sequence of CpIMPDH (Q8T6T2 whole entry): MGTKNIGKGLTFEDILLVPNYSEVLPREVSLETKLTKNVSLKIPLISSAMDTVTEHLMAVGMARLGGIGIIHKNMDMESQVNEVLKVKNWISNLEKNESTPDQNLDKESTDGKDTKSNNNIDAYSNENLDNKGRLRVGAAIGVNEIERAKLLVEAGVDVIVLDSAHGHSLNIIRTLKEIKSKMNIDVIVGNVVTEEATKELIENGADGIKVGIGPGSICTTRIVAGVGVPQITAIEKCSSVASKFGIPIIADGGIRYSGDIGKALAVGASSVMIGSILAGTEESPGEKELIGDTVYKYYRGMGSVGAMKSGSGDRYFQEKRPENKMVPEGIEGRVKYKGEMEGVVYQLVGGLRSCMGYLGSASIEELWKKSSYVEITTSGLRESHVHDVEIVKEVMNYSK

## CC(Oc1cc[n+]([O-])c2ccccc12)c1cn(-c2ccc(Cl)c(Cl)c2)nn1 (stereo not drawn) [Compound A103]
[1]; [7]
  EC50: 19 ± 4 µM
[1]; wild-type T. gondii, no added xanthine, read-out: T. gondii model EC50 WT
  EC50: ≥ 20 µM
[2]
  EC50: 17 ± 4 µM
[3]
  selectivity for the T. gondii-CpIMPDH parasite over wild-type T. gondii: ≥ 36 fold
  Selectivity = EC50(T. gondii-wild-type)/EC50(T. gondii-CpIMPDH): 36
  EC50: 0.5 ± 0.4 µM
[4]
  activity at 25 µM: 33 ± 6%
[4]; at 12.5 µM and 25 µM
  inhibition of HCT-8 cell growth: inhibit HCT-8 cell growth significantly
[5]
  EC50: < 0.8 µM
  potency relative to paromomycin: > 100 ×

## C[C@@H](Oc1ccnc2ccccc12)c1cn(-c2ccc(Cl)c(Cl)c2)nn1 [Compound A105]
[3]
  Selectivity = EC50(T. gondii-wild-type)/EC50(T. gondii-CpIMPDH): 2.9
[4]
  activity at 25 µM: 81 ± 13%
  effect on host cell (HCT-8) growth: do not inhibit host cell growth
[5]
  EC50: 6 to 13 µM

## C[C@H](Oc1ccnc2ccccc12)c1cn(-c2ccc(Cl)c(Cl)c2)nn1 [Compound A107]
[1]; [7]
  EC50: 6 µM
[2]
  EC50: 7 µM
[3]
  Selectivity = EC50(T. gondii-wild-type)/EC50(T. gondii-CpIMPDH): 3.1
  EC50: 2.4 µM
[4]
  activity at 25 µM: 64 ± 16%
[5]
  EC50: < 13 µM

## C[C@H](Oc1ccnc2ccccc12)c1cn(-c2ccc(C#N)c(Cl)c2)nn1 [Compound A108]
[1]; [7]
  EC50: 5 µM
[3]
  Selectivity = EC50(T. gondii-wild-type)/EC50(T. gondii-CpIMPDH): 1.3
  EC50: 3.9 µM
[4]
  activity at 25 µM: 47 ± 14%
[5]
  EC50: 12 to 25 µM

## C[C@@H](Oc1cc[n+]([O-])c2ccccc12)c1cn(-c2ccc(Cl)cc2)nn1 [Compound A110]
[1]; [7]
  EC50: 23 ± 2 µM
[2]
  EC50: > 25 µM
[3]
  selectivity for the T. gondii-CpIMPDH parasite over wild-type T. gondii: ≥ 36 fold
  Selectivity = EC50(T. gondii-wild-type)/EC50(T. gondii-CpIMPDH): > 120
  EC50: < 0.2 µM
[4]
  activity at 25 µM: 94 ± 12%
[5]
  EC50: < 0.8 µM
  potency relative to paromomycin: > 100 ×

## COc1c(C)c2c(c(O)c1C/C=C(\C)CCC(=O)O)C(=O)OC2 [MPA, mycophenolic acid, reference compound]
[1]; Toxoplasma gondii, media supplemented with xanthine (0.33 mM), read-out: EC50 wild-type T. gondii with xanthine
  EC50: ≥ 78 µM
[1]; [7]
  EC50: 2.6 µM
[2]
  EC50: 0.29 µM
[3]
  EC50: > 65 µM
[6]
  CpIMPDH inhibition by MPA: not inhibited

## CCCC(=O)[O-].[Na+] [sodium butyrate, reference compound]
[4]
  effect on host cell (HCT-8) growth: did inhibit HCT-8 growth in a dose-dependent manner

Source: article PMC2919388, “A Screening Pipeline for Antiparasitic Agents Targeting Cryptosporidium Inosine Monophosphate Dehydrogenase” (PLoS Neglected Tropical Diseases, 2010)
